For data set [1] the following is noted: aerosol formed from the polyol; cited from earlier work.
A short description of data set [2]: Mass transfer of polyol-drug formulations from substrate in device with puffing equipment; effluent collected on Cambridge pads, weighed, nicotine by GC/MS. Particulars: after heating in device with PEG.

With `OCC(O)CO` [Glycerin], the MMAD entry in data set [1] was “less than 1.5 micrometers”.

Take `CN1CCCC1c1cccnc1.O=C(O)C(O)C(O)C(=O)O` (stereo not shown) [NIC B, nicotine bitartrate]: the “decomposition products from nicotine in the chromatograms (GC/MS of extracts of collected effluent)” value in data set [2] is given as “no measurable decomposition products”.

As to `CN1CCCC1c1cccnc1` (stereo not shown) [NIC, nicotine], the “decomposition products from nicotine in the chromatograms (GC/MS of extracts of collected effluent)” value in data set [2] was “no measurable decomposition products”.

Take `CC(O)CO` (stereo not shown) [Propylene Glycol (PEG), Propylene Glycol]: the MMAD result in data set [1] is “less than 0.9 micrometers”.

The values above are taken from patent US8251060B2, “Device and method for delivering an aerosol drug” (priority 2006, dated 2012).
